We go through two compounds from BindingDB's records for doi:10.1021/jm960069a (University of Camerino, 1996).

This assay addresses Alpha-1B adrenergic receptor (Mesocricetus auratus) (UniProt P18841). Kind of assay: Binding affinity towards Alpha-1B adrenergic receptor hamster smooth muscle using [3H]prazosin as radioligand.

Alpha-1B adrenergic receptor (Mesocricetus auratus), sequence (P18841 whole entry, looked up): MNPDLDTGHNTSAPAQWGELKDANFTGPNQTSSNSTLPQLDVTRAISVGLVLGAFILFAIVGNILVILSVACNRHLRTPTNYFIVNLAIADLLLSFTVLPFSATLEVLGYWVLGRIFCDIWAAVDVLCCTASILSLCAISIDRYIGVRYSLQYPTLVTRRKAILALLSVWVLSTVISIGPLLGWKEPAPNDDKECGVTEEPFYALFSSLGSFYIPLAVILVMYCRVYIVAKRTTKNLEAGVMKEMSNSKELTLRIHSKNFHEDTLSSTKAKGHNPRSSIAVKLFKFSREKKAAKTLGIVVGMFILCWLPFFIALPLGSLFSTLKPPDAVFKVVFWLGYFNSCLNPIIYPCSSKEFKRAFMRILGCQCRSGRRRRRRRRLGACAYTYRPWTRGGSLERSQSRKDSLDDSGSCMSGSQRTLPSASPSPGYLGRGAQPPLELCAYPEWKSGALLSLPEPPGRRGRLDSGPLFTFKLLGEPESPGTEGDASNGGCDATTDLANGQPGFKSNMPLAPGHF

As usually defined, the Ki is a dissociation constant, usually derived from enzyme kinetics or from competition with a known ligand. In turn, `COc1cccc(OC)c1OCCNC[C@@H]1Oc2ccccc2O[C@H]1c1ccc(C)cc1` [[2-(2,6-Dimethoxy-phenoxy)-ethyl]-((2S,3S)-3-p-tolyl-2,3-dihydro-benzo[1,4]dioxin-2-ylmethyl)-amine] had a Ki of 21.1 nM. In the case of `COc1cccc(OC)c1OCCNCC1Oc2ccccc2OC1c1ccc(C)cc1` (configuration not stated) [[2-(2,6-Dimethoxy-phenoxy)-ethyl]-(3-p-tolyl-2,3-dihydro-benzo[1,4]dioxin-2-ylmethyl)-amine], the Ki is 51.4 nM.
